Source: US20240174992A1, “SPLIT MODIFIED DEHALOGENASE VARIANTS” (Promega Corporation, priority 2022, published 2024)

Legend:
HeLa cells [1] = assay: Live cell labeling kinetics of split HaloTag fragments fused to BRD4 and Histone H3, time-lapse imaging; format: cell-based; settings: 100 nM JF646, BRD4-HaloTag[3-19] and H3.3-HaloTag[22-297](M2F)-EGFP
Method: FIG. 136. Timepoint imaging of complemented BRD4:Histone H3 complexes in live cells after addition of JF646 HaloTag ligand. […] Cells were immediately imaged after the ligand, 100 nM JF646, addition every 15 minutes for 1.5 hour. Imaging data were collected in the Far-red channel (Ex. 637 nm, top panel) and the green channel (Ex. 488 nm, bottom panel).
FIG. 137. Quantitation of live cell labeling kinetics of split HaloTag fragments fused to BRD4 and Histone H3 using time-lapse imaging. Cells were immediately imaged after the ligand addition every 10 minutes for 70 minutes. A Z-stack image was obtained at all time points to ensure all cells were captured in focus. The most focused Z levels were merged into one, and the intensity of all cells (6 total objects) was measured and averaged at all time points. The average of all cells' intensities present in the captured field of view were tracked in the far-red channel and the green channel over this period. […]
To measure the labeling rate, cells were immediately imaged after ligand addition every 10 minutes for 70 minutes (FIG. 137). […] The most focused Z levels were merged into one, and the intensity of all cells (6 total objects) was measured and averaged at all time points. […]

[2] = target: T1, Calmodulin:M13 interaction (Homo sapiens, UniProt P0DP23); assay: Calmodulin:M13 interaction with split HaloTag, plate assay in live HeLa cells; format: cell-based
T1 construct: HaloTag[3-19]; expressed in transfected cells; host or cells: HeLa cells
Method: FIG. 140. Use of split HaloTag in detecting the interaction between Calmodulin and M13 peptide induced by the Calcium ions in live mammalian cells. […] The fluorescence activity was measured at indicated time points. For each construct, four technical replicates were tested. The bar for each construct is the mean of the four replicates, and the error bar represents the standard deviations.
FIG. 141. The fold response of split HaloTag in detecting the interaction between Calmodulin and M13 peptide induced by the Calcium ions in live mammalian cells. The fold response of each assay condition was calculated as the ratio of fluorescence signal for +Calcium chloride divided by −Calcium chloride treated cells (B). For each construct, four technical replicates have been tested. The bar for each construct is the mean of the four replicates, and the error bar represents the standard deviations.

[3] = target: T1, Calmodulin:M13 interaction; assay: Calmodulin:M13 interaction with split HaloTag, live cell imaging in HeLa cells; format: cell-based
Method: FIG. 142. Live cell imaging of split HaloTag function in detecting the interaction between Calmodulin protein with the M13 peptide induced upon the addition of Ca ions in live mammalian cells. […] Prior to imaging by confocal microscopy, cells were labeled with 100 nM JF646 HaloTag ligand for 30 minutes at 37° C. The imaging data were collected in the far-red channel (Ex. 637 nm) and the green channel (Ex. 488 nm).
FIG. 143. Background measurement of HaloTag[22-297](M2F) fused to M13 peptide in live mammalian cells at lower laser intensity To measure the background originating from labeling the HaloTag [22-297](M2F) fragment, cells were transfected with just the M13-HaloTag[22-297](M2F)-EGFP plasmid and imaged using the same microscope settings. The Imaging data were collected in the far-red channel (Ex. 637 nm) and the green channel (Ex. 488 nm).
FIG. 144. Quantitation of live cell imaging of split HaloTag function in detecting the Calmodulin and M13 peptide interaction in live mammalian cells. Comparison of the fluorescent intensity of all imaged cells across several fields of view in the presence or absence of Calcium chloride (6 mM) conditions compared against the background fluorescent intensity of the labeled non-complemented HaloTag[22-297](M2F) fragment alone. Each dot represents the intensity of an imaged cell. CellProfiler software is used for this analysis.

HeLa cells [4] = assay: Split HaloTag FRB/FKBP plate-based fluorescent assay in live HeLa cells; format: cell-based; settings: for performance of small HaloTag fragment: live HeLa cells, 500 nM Rapamycin, 50 nM JF646
Method: FIG. 27A-B. Activity of split HaloTag combinations in live mammalian cells. HeLa cells transiently transfected with plasmids expressing the large HaloTag fragments fused to FRB and small HaloTag fragments fused to FKBP were incubated for 2 hours with 500 nM Rapamycin, followed by labeling with 50 nM JF646 HaloTag ligand prior to detection of fluorescence at indicated timepoints. FIG. 27A Fluorescence intensity of JF646 HaloTag ligand in live cell assays over time comparing cells treated or untreated with Rapamycin. FIG. 27B Fold response of each assay condition was calculated as the ratio of fluorescence signal for +Rapamycin/−Rapamycin treated cells.
(§1) FIG. 90. The activity of different small HaloTag fragments in live mammalian cells. HeLa cells transiently transfected with plasmids expressing the large HaloTag fragment fused to FRB and small HaloTag fragments fused to FKBP were incubated for 2 hours with 500 nM Rapamycin, followed by labeling with 50 nM JF646 HaloTag ligand prior to detection of fluorescence activity at indicated time points. Fluorescence intensity of JF646 HaloTag ligand in live cell assays over time comparing cells treated or untreated with Rapamycin.
(§2) FIG. 91. Fold response of different small HaloTag fragments in live mammalian cells. HeLa cells transiently transfected with plasmids expressing the large HaloTag fragment fused to FRB and small HaloTag fragments fused to FKBP were incubated for 2 hours with 500 nM Rapamycin, followed by labeling with 50 nM JF646 HaloTag ligand prior to detection of fluorescence activity at indicated time points. The fold response of each assay condition was calculated as the ratio of fluorescence signal for +Rapamycin/−Rapamycin treated cells.
as §1, with “93. Activity comparison” for “90. The activity”, “HaloTag[22-297] variants in a protein complementation assay” for “different small HaloTag fragments”
as §2, with “94. […]” for “91. Fold response of different small HaloTag fragments in live mammalian cells.”, “+Rapamycin/− Rapamycin” for “+Rapamycin/−Rapamycin”, “cells. […]” for “cells.”

[5] = Complementation of N-terminal split HaloTag constructs in E. coli lysates, Janelia Fluor ligand fluorescence; format: biochemical; settings: FKBP fusion against HT(23-297)-FRB, 500 nM Rapamycin, JF646
Method: FIG. 21A-B. Comparison of complementation activity of N-terminal split HaloTag constructs. Each HaloTag fragment was expressed separately in E. coli and then combined after lysis. The smaller N-terminal HaloTag fragments as FKBP fusions were tested against the larger fragments of FIG. 21A HT(23-297)-FRB or FIG. 21B HT(22-297)-FRB. To each reaction, 500 nM Rapamycin was added and incubated at room temperature for 2.5 hours prior to addition of 50 nM JF646 ligand and measurement of fluorescence at the indicated timepoint.
FIG. 22. Comparison of truncations of N-terminal split HaloTag constructs. Each HaloTag fragment was expressed separately in E. coli and then combined after lysis. […] To each reaction, 500 nM Rapamycin was added and incubated at room temperature for 2 hours prior to addition of 50 nM JF646 ligand and measurement of fluorescence at the indicated timepoint.
FIG. 25A-B. Mutations in N-terminal split HaloTag fragments improve fluorescence intensity and fold response. […] To each reaction, 500 nM Rapamycin was added and incubated at room temperature for 2 hours prior to addition of 50 nM JF646 ligand and measurement of fluorescence at the indicated timepoint. FIG. 25A Fluorescence intensity is shown for +Rapamycin condition to show the overall system brightness relative to FIG. 25B Fold response following Rapamycin addition. […]

C[Si]1(C)c2cc(N3CCC3)ccc2C2(OC(=O)c3ccc(C(=O)NCCOCCOCCCCCCCl)cc32)c2ccc(N3CCC3)cc21 [JF646]
time for far-red channel signal to reach its maximum (HeLa cells [1]): about 40 minutes

[Ca+2].[Cl-].[Cl-] [calcium, Calcium chloride]
change in fluorescence of split HaloTag fused to Calmodulin and M13 peptide [2]: modest, calcium-dependent increase in fluorescence
change in fluorescence from split HaloTag complementation ([3]; 6 mM Calcium chloride, microscopy): significant increase in fluorescence
increase in median fluorescence ([3]; across all cell images, Calcium chloride 6 mM): 7 ×

HT(4-19): small HaloTag fragment, residues 4-19, FKBP fusion
performance of small HaloTag fragment (HeLa cells [4]): good fluorescence intensities and high fold responses

HT(8-19): truncated small N-terminal HaloTag fragment, residues 8-19, FKBP fusion
complementation activity of truncated small fragment [5]: Complementation activity was demonstrated

HaloTag[1-30]: small HaloTag fragment, residues 1-30, FKBP fusion
performance of small HaloTag fragment (HeLa cells [4]): best SmHT in this assay
background complementation (HeLa cells [4]; no Rapamycin): higher background (no Rapamycin) complementation

HaloTag[3-19]: small HaloTag fragment, residues 3-19 of the HALOTAG sequence; used as fusion or synthetic peptide (EIGTGFPFDPHYVEVLG)
performance of small HaloTag fragment (HeLa cells [4]): good fluorescence intensities and high fold responses
